“Also recorded” adds a separate entry of the source. Residues, ends and D or L forms follow the SMILES beside them. *: point of attachment. Cbz = O=C(OCc1ccccc1)*

What all share (format): cell-based
In data set [1] the test system is HEK293 cells. The data set can be described thus: FACS propidium iodide staining: cell cycle distribution / apoptosis of transfected HEK293 cells. Here is the method:
(§1) Cultured HEK293 cells were transfected with plasmids encoding CFTR or CFTR-ΔF508 (GFP-tagged) and/or co-transfected with plasmids encoding USP4 (or an appropriate control plasmid) by using the CaPO4-precipitation method. Sixteen hours after transfection the cells were treated with varying concentrations of compounds. At a specific time point (here 24 h) the cells are trypsinized, fixed in ethanol, permeabilized and stained with propidium iodide (PI). The stained cells are subjected to FACS analysis
Transiently transfected HE 293 cells were fixed in ethanol 24 h after transfection as mentioned above and then stained with propidium iodide to label the DNA: the rationale was to examine the distribution of cells in the cell cycle (=to see if the expression of CFTR or of CFTR-ΔF508 was toxic or if the compounds employed killed the cells/drove them into apoptosis).
One can plot the cell counts against the propidium iodide fluorescence of the transfected cells (such as shown in, for example, FIG. 2b): This gives a peak of cells (denoted by M1) that have a 2n content of DNA (G1-cells), a shoulder of cells that have a DNA content of larger than 2n (denoted by M3 and representing cells that are in S-phase) and a second peak of cells that have a DNA content of 4n (denoted by M2 and representing cells in G2 and M-phase).

The test system of data set [2] is CFTR-ΔF508. The data set can be described thus: FACS monitoring of expression of GFP-tagged CFTR-ΔF508 in HEK293 cells. The conditions noted are these: for CFTR-ΔF508-associated fluorescence (expression level) versus control: 24 h. The method, then: as §1
Because CFTR is tagged with a fluorescent protein, expression in individual cells can be monitored by fluorescence activated cell sorting (FACS). By contrast with fluorescence microscopy (where individual cells are picked), FACS allows to survey the entire cell population. In addition, FACS has the advantage that it allows for reasonable sample throughput; finally, automation and scale-up is readily possible.
The original data set is shown on the right hand side of the figures, respectively (see e.g. FIG. 2c): the x-axis is the propidium iodide fluorescence (note that the scale is linear). The y-axis is the GFP-fluorescence (=fluorescence associated with CFTR; note that the scale is logarithmic) and each dot corresponds to a cell. The quadrangle delineates the cells that express CFTR.

In data set [3] the test system is CFTR-ΔF508. Put plainly: Immunoblot for GFP-tagged CFTR-ΔF508 expressed in HEK293 cells (endoglycosidase H treated extracts). Details: accumulation of CFTR-ΔF508 (intensity of staining compared to control lane 4): unit of the concentration uncertain. The conditions noted are these: for accumulation of CFTR-ΔF508 (intensity of staining compared to control lane 4): treated overnight (16 h). The method, then: HEK293 cells (1*10^6 cells) were transfected with plasmids encoding CFTR or CFTR-ΔF508 (GFP-tagged) and/or co-transfected with effector plasmids. After 16 h, the cells were treated with the varying concentrations of compounds. After 24 h, the cells were harvested in phosphate-buffered saline, lysed by a freeze-thaw cycle and homogenized by sonication. The homogenate was resuspended in reducing Laemmli sample buffer (50 mM Tris.Hcl, pH 6.8, 20% glycerol, 0.1% bromophenol blue, 2% SDS and 20 mM dithiothreitol); aliquots (15% of the original culture) were resolved on a denaturing polyacrylamide gel (monomer concentration in the stacking gel and in the running gel 4 and 8% respectively) and electrophoretically transferred to a nitrocellulose membrane. Immunodetection was done with an antiserum directed against GFP as the primary antibody and an anti-rabbit IgG coupled to horseradish peroxidase as the secondary antibody.
In a first example, Membranes from transfected cells were prepared and immunoblotted for GFP-tagged CFTR or CFTR-ΔF508, respectively (by using an antibody directed against the fluorescent protein).
The membrane extract was also treated endoglycosidase H. The rationale for this experiment is as follows: membrane proteins are core glycosylated in the endoplasmatic reticulum. Core glycosylation is sensitive to endoglycosidase H. If the protein has reached the Golgi (and then trafficked to the plasma membrane), it acquires additional sugar moieties and becomes resistant to endoglycosidase H. It is evident from lane 3 in FIG. 1 that endoglycosidase H treatment reduces the apparent size of CFTR; thus, the bulk of the protein is still in the ER. The following lanes examine the expression of CFTR-ΔF508 (all extracts were treated with endoglycosidase H): lane 4 is the control, that is cells expressing CFTR-ΔF508; in lanes 5, 6, 7 and 8 cells expressing CFTR-ΔF508 were treated overnight (i.e. for 16 h) with 100 nM MG132, […], […] and 100 nM bortezomib, respectively.

Where [4] appears, read: cells cotransfected with plasmid driving expression of USP4.

On to “USP-4: deubiquitinating enzyme (ubiquitin specific protease), co-expressed in cells from a transfected plasmid”, for which the “toxicity / apoptosis (cell cycle distribution, sub-2n fraction)” value in data set [1] (setting [4]) was “not toxic and does not cause apoptosis”. Further, the “CFTR-ΔF508-associated fluorescence versus control” value in data set [2] (setting [4]) is “CFTR-ΔF508-associated fluorescence increases”.

As to `CC(C)C[C@H](NC(=O)[C@H](Cc1ccccc1)NC(=O)c1cnccn1)B(O)O` [Bortezomib, N-(2-pyrazine)carbonyl-L-phenylalanine-L-leucine-boronic acid], the “cell cycle distribution of CFTR-ΔF508 expressing cells versus control” value in data set [1] (10 nM, HEK293 cells) was “essentially the same as the one shown in control cells”. The “number of cells with low propidium iodide fluorescence (apoptotic cells)” value is reported as “number of cells with low propidium iodide fluorescence increases” in data set [1] (100 nM, HEK293 cells) and “number of cells with low propidium iodide fluorescence increases” in data set [1] (1 μM, HEK293 cells). In addition, the “peak of the G1-cells (M1) in cell cycle distribution” value in data set [1] (100 nM, HEK293 cells) is recorded as “greatly reduced”; in data set [1] (1 μM, HEK293 cells), “greatly reduced”. Besides, in data set [3] (100 nM compared with 1 μM, 16 h), the “relative effectiveness in accumulation of CFTR-ΔF508, 100 nM versus 1 μM” value is listed as “more effective than 1 μM bortezomib”. Besides, the “accumulation of CFTR-ΔF508 (intensity of staining compared to control lane 4)” value in data set [3] (100 nM) and in data set [3] (1 (unit uncertain)) was “led to the accumulation of CFTR-ΔF508” throughout. Moreover, the “CFTR-ΔF508-associated fluorescence (expression level) versus control” value in data set [2] (10 nM, HEK293 cells) is listed as “expression of CFTR is increased; also recorded: substantially increases the level of CFTR-ΔF508”; in data set [2] (100 nM, HEK293 cells), “expression of CFTR is increased”.

For the compound `CC(C)C[C@@H](C=O)NC(=O)[C@H](CC(C)C)NC(=O)[C@H](CC(C)C)NC(=O)OCc1ccccc1` [MG132] (Cbz-Leu-Leu-Leu-aldehyde), the apoptotic effect result in data set [1] (1 μg, HEK293 cells) is on record as “pronounced apoptotic effect”. Moreover, in data set [2] (1 μg, HEK293 cells), the CFTR-ΔF508-expression entry was “enhances CFTR-ΔF508-expression”.

Turning to `O=C1N[C@@H]2[C@@H](O)[C@@H](O)[C@H](O)[C@@H](CO)N2C1=O` [kifunensine], the “accumulation of CFTR-ΔF508 (intensity of staining compared to control lane 4)” value in data set [3] (20 (unit uncertain)) was “led to the accumulation of CFTR-ΔF508”.

For the origin of these results see US20090017006A1, “USE OF A COMPOUND FOR ENHANCING THE EXPRESSION OF MEMBRANE PROTEINS ON THE CELL SURFACE” (BIODEVELOPS PHARMA ENTWICKLUNG GMBH, priority 2005, published 2009).
